Source: patent US4044043A, “Derivatives of 9-oxo-13-trans-prostenoic acid esters” (American Cyanamid Company, priority 1975, dated 1977)
Values after ≈ are worked out from the molar mass of the structure shown. Read-outs that look alike come from different tables or passages of the source.

Columns and labels:
[1] = tested on: bronchospasms elicited by 5-hydroxytryptamine; assay: Bronchodilator Activity (Konzett Assay) against 5-hydroxytryptamine; format: in vivo, guinea pigs; details: Cavia porcellus; three logarithmic cumulative intravenous doses
Method: (§1) Bronchodilator activity was determined in guinea pigs against bronchospasms elicited by intravenous injections of 5-hydroxytryptamine, histamine or acetylcholine by the Konzett procedure. [See J. Lulling, P. Lievens, F. El Sayed and J. Prignot, Arzeneimittel-Forschung, 18, 995 (1968)]. In Table IIIC which follows bronchodilator activity for representative compounds of this invention against one or more of the three spasmogenic agents is expressed as an ED50 determined from the results obtained with three logarithmic cumulative intravenous doses.

gastric acid secretion [2] = assay: Inhibition of Gastric Acid Secretion (Pylorous-Ligated Rat), Shay rat procedure; format: in vivo, rats (male, CFE strain); details: read-out: % Inhibition of Control Gastric Acid Secretion; for inhibition in vivo at 100 mg/kg: 100 mg./kg. intraduodenal
From the text: The novel compounds of the present invention are also effective inhibitors of gastric acid secretion and of ulcer development in experimental animals, and thus are potentially valuable as agents for the control of gastric acid secretion and of gastric erosion and as anti-ulcer agents. Gastric acid secretion inhibitory action is usually measured by the Shay rat procedure ^(1,2) with some modifications as follows. 6 1. Shay et al., Gastroenterology, 5, 43 (1945). 6 2. Shay et al., Gastroenterology, 26, 906 (1954).
The rats (male, CFE strain) were starved for 48 hours (water was given ad libitum) to permit evacuation of stomach contents. On the morning of the experiment, under ether anesthesia, the abdominal region was shaved and a midline incision (1-1 1/2 inch) was made with a scalpel. With the help of a closed curved hemostat the duodenum was picked up. Upon getting the duodenum into view fingers were used to pull the stomach through the opening, the stomach was then gently manipulated with fingers to rid stomach of air and residual matter which were pushed through the pylorus. Two 5-inch sutures were drawn under the pyloric-duodenal puncture. A ligature, at the juncture, was formed with one of the threads. The second ligature was also formed but not tightened.
The test compound or the vehicle, usually 1 ml./100 g. body weight, were injected into the duodenum as close as possible to the first ligature. After injection the second ligature was tightened below the injection site to minimize leakage. The stomach was placed back through the opening into the abdominal cavity, the area of incision was washed with saline and the incision was closed with autoclips. (Ocasionally instead of an intraduodenal injection, animals were dosed by the oral or subcutaneous route. In the latter case, dosing was done thirty to sixty minutes before the operation).
The abdominal cavity was exposed by cutting with scissors and the esophagus close to the stomach was clamped off with a hemostat, the stomach was removed by cutting above the hemostat (the esophagus was cut) and between the two sutures. Extraneous tissue was removed, the stomach washed with saline and blotted on gauze. A slit was carefully made in the stomach which was held over a funnel and the contents were collected in a centrifuge tube. The stomach was further cut along the outside edge and turned inside out. Two ml. of water were used to wash the stomach contents into the respective centrifuge tube. The combined stomach contents and wash were then centrifuged out for 10 minutes in the International Size 2 Centrifuge (setting at 30). The supernatant was collected, volume measured and recorded, 2 drops of phenolphthalein indicator (1% in 95% ethanol) were added and the solution was titrated with 0.02N NaOH (or with 0.04N NaOH when large volumes of stomach contents were encountered) to pH 8.4 (because of usual coloring of the stomach contents, phenolphthalein was only used to permit visual indication that the end point was near) and the amount of acid present was calculated.
Compounds inducing inhibition of gastric acid secretion of 20% or more were considered active. In a representative operation, and merely by way of illustration, the results obtained with this assay with typical compounds of the present invention are given in Table IIIA.

[3] = tested on: dl-PGE1-induced contraction of gerbil colon; assay: Inhibition of dl-PGE1-Induced Contraction of Gerbil Colon (prostaglandin antagonist action); format: cell-based, gerbils (Meriones unguiculatus); details: Meriones unguiculatus, 1 min
Method: The compounds of this invention are also useful as antagonists of prostaglandin action and accordingly they are potentially useful as anti-inflammatory agents, and as agents for the treatment of periodontal diseases and diarrhea. Testing for prostaglandin antagonist action is carried out in the following manner. Sections of ascending colon, approximately 20 mm. long, from mature male gerbils (Meriones unguiculatus) weighing 70-80 g. were mounted in De Jalon's solution (154 mM NaCl; 5.95 mM NAHCO3; […], 5.64 mM KC and .27 mM CaCl2 in 20 ml. tissue baths) (L and K Glass Co., Lynnhurst, N.J.). The medium was continually gassed with a mixture of 95% 02 -5% CO2 and maintained at 37° C. The tissues were suspended via silk suture threads between a glass hook at the base and a model FT .03C force displacement transducer (Grass Instruments, Quincy, Massachusetts). Contractions were recorded on a Poly-Viso ® polygraph (Sanborn Co., Cambridge, Massachusetts). After mounting, tissues were allowed to stabilize 15-20 minutes during which time adjustments were made to establish and maintain a 0.5 g. resting tension on the muscle. Thereafter, test cycles of 3-5 minutes were begun and consisted of a 1 minute exposure to the potential antagonist, if called for, followed by a 1 minute exposure to the prostaglandin agonist, a 15-30 sec. washout and a recovery period of 2-2.5 minutes. […] During the washout period, the tissue was rinsed with a measured amount equalling 8 volumes of medium. Muscle relaxation was virtually complete by the end of the washout period. During preliminary tests it was noted that a final concentration of 200 ng./ml. of a racemic mixture of synthetic prostaglandin-E1 (dl-PGE1) produced maximal muscle contraction. Following stabilization, muscles were exposed 2 to 3 times to this concentration of dl-PGE1 until a consistent response was recorded. Once maximal responses were established, test cycles with potential antagonists were commenced and were followed alternately with prostaglandin-only test cycle. […] The contraction of the muscle induced by 200 ng./ml. dl-PGE1 following exposure to a given concentration of the potential antagonist was always compared to the response of the tissue to that level of dl PGE1 in the immediately preceding cycle. Using a series of potential antagonist concentrations, an approximate ID50 (concentration at which 50% inhibition was observed) was established. The compounds were also tested against a sub-maximal prostaglandin challenge (20 ng./ml. dl-PGE1) in which case activity is reported in terms of a 50% inhibition of maximum response.

[4] = tested on: bronchospasms elicited by acetylcholine; assay: Bronchodilator Activity (Konzett Assay) against acetylcholine; format: in vivo, guinea pigs; details: Cavia porcellus; three logarithmic cumulative intravenous doses
Method: as §1

[5] = tested on: bronchospasms elicited by histamine; assay: Bronchodilator Activity (Konzett Assay) against histamine; format: in vivo, guinea pigs; details: Cavia porcellus; three logarithmic cumulative intravenous doses
Method: as §1

gastric acid secretion [6] = assay: Inhibition of basal Gastric Acid Secretion (Acute Gastric Fistula Rat); format: in vivo, Female Sprague-Dawley rats; details: 2 h, 10 mg./kg. intraduodenal, B: 120 minute collection
Method: Inhibition of basal gastric acid secretion was determined in the acute gastric fistula rat as follows. Female Sprague-Dawley rats (Charles River Laboratories) weighing 140-160 grams are fasted in individual cages for 18-24 hours. The rats are then lightly anesthetized with ether and their front teeth extracted to avoid destruction of the plastic cannula. A midline incision is then made and the stomach and duodenum exposed. A flanged polyvinyl tube is inserted into the fundic portion of the stomach and secured with a purse string suture line using 4-0 Mersilene. The rat is then dosed by injection of the compound into the duodenum (1.0 ml. per 100 gram body weight). After dosing, the abdominal wall and skin are closed using metal wound clips. The rat is replaced in a cage containing a longitudinal slit to allow the polyvinyl tube to hang freely. An 8 ml. plastic collecting tube is attached to the flanged cannula and hangs freely below the cage. The first 30 minute sample is discarded designating this time as zero. The collecting tube is attached again and samples removed at the end of 60 and 120 minutes. Those samples are referred to as "A" and "B" in the table. The hourly samples are then transferred to a 15 ml. centrifuge tube and centrifuged for 5-10 minutes. Total and sediment volume are then recorded with the supernatant volume being used as volume of secretion. A 1 ml. or less aliquot is then removed and placed in a 50 ml. beaker containing 10 ml. of distilled water. This sample is then titrated using 0.01N NaOH to pH 7.0 using a Beckman zeromatic pH meter. Volume, titratable acidity (meq/L) and total acid output (μ eq/hour) are recorded. Percent inhibition is determined by comparison with the appropriate control. Groups of three rats were used. All compounds are administered in vehicle (0.5% methocel, 0.4% Tween 80, saline) at a constant volume of 1 ml./100 gram rat. Samples were sonicated with care to prevent overheating.

diastolic blood pressure = assay: Prostaglandin-like hypotensive activity in anesthetized rats (minimal dose for about 10 mm. decrease in diastolic blood pressure); format: in vivo, Male Wistar strain rats; details: Rattus norvegicus; intravenous; decrease of about 10 mm. in diastolic blood pressure
Method: This procedure is a modification of the technique described by Pike et al., Prostaglandins, Nobel Symposium 2, Stockholm, June, 1966; p, 165.
Male Wistar strain rats (Royal Hart Farms) averaging approximately 250 grams in weight were fastened to rat boards in a supine position by means of canvas vests and limb ties. The femoral area was infiltrated subcutaneously with lidocaine and the iliac artery and vein exposed and cannulated. Arterial blood pressure (systolic/diastolic) was recorded using a Statham P23 Db pressure transducer-Offner dynograph system. To obtain a stable blood pressure, the animals were anesthetized before use with pentobarbital, 30 mg./kg. of body weight intravenously, and also were given hexamethonium bitartrate, 2 mg./kg. of body weight intravenously. The test compounds were prepared by ultrasonic dispersion in a saline-Tween 80 ® vehicle. A constant intravenous dose volume of 0.5 ml. was administered and test doses ranged from 0.1 to 10.0 mg./kg. of body weight. Increasing or decreasing doses were selected depending on the dose response obtained. In Table I below are set forth the minimal doses required to produce a decrease of about 10 mm. in diastolic blood pressure for typical compounds of the present invention.

[7] = tested on: Trichophyton tonsurans NIH 662; assay: agar-dilution streak-plate antimicrobial assay; format: cell-based; details: NIH662, read-out: Minimal inhibitory conc. (3)
Method: (§2) The novel compounds of the present invention are also useful as antimicrobial agents. […] In this assay, the compounds to be tested are made up to contain 2.5 mg. of test compound per milliliter of solution. Observing sterile techniques, two-fold serial dilution are made of each test solution. One milliliter of each of the original solutions and of each of the serial dilutions is then added to 9 ml. of warm sterile nutrient agar capable of supporting growth of the bacterial test cultures. A second set of agar dilutions is prepared identical to the first except that the nutrient agar is designed to support the growth of the fungal test cultures. […] The test bacteria and yeast-like fungi are prepared for use by growing in broth overnight. The spores of the filamentous fungi are harvested from mature agar slant cultures and are suspended in sterile physiological saline solution. A loopful of each of the resulting live suspensions is then, still employing sterile techniques, streaked upon the surfaces of each of the agar plates and the resulting streaked plates are then incubated. After an appropriate period of time, each of the streaks on each of the plates is inspected visually and the extent, if any, of bacterial or fungal growth is noted. The minimal inhibitory concentration (expressed in micrograms per milliliter) is defined as the concentration of test compound causing complete inhibition of growth of any particular organism. In a representative operation, and merely by way of illustration, the minimal inhibitory concentration of typical compounds of the present invention against a variety of test organisms as determined in the above-described assay are set forth in Tables II and III below: […]

[8] = tested on: Mycobacterium smegmatis ATCC 606; assay: agar-dilution streak-plate antimicrobial assay; format: cell-based; details: Mycolicibacterium smegmatis, ATCC606, read-out: Minimal inhibitory conc. (6)
Method: as §2

[9] = 200 ng./ml. dl-PGE1, read-out: ID50 vs. 200 ng. of PGE1/ml.
[10] = sub-maximal challenge, 20 ng./ml. dl-PGE1, 50% inhibition of maximum response, read-out: ID50 vs. 20 ng. of PGE1/ml.
[11] = read-out: % Inhibition Total Acid Output
[12] = read-out: % Inhibition Total Acidity

IC50 [3, 9] | IC50 [3, 10] | Compound | ED50 [1] | ED50 [4] | ED50 [5] | inhibition in vivo at 100 mg/kg (gastric acid secretion [2]) | also measured
20 µg/mL (≈ 61.6 µM) |  | CCCCCC/C=C/[C@@H]1CCC(=O)[C@H]1CCCCOCC(=O)O (relative stereo) [9-oxo-3-oxa-13-trans-prostenoic acid] | 0.895 mg/kg | 5.24 mg/kg | 0.67 mg/kg | 90% | 
 | 1 to 2 µg/mL (≈ 2.96 to 5.93 µM) | CCCCCC/C=C/[C@@H]1CCC(=NO)[C@H]1CCCCCCC(=O)O (relative stereo) [9-oxo-13-trans-prostenoic acid 9-oxime, 9-Oxo-13-trans-prostenoic acid oxime] | 30 mg/kg | 12.5 mg/kg | 23.1 mg/kg | 39% | 
 | 1 to 2 µg/mL (≈ 3.4 to 6.79 µM) | CCCC/C=C/[C@H]1CCC(=O)[C@@H]1CCCCCCC(=O)O (relative stereo) [9-oxo-19,20-dinor-13-trans-prostenoic acid] | 2.16 mg/kg | 5.28 mg/kg | 0.715 mg/kg | 77% | inhibition in vivo at 50 mg/kg (gastric acid secretion [2]; 50 mg./kg. intraduodenal): 37%

Further lines, the compound ahead of its results:

Compound | IC50 [3, 9] | IC50 [3, 10] | ED50 [1] | ED50 [4] | ED50 [5] | inhibition in vivo at 100 mg/kg (gastric acid secretion [2]) | also measured
CCCCCC/C=C/[C@@H]1CCC(=O)[C@H]1CCCCC(C)(C)CC(=O)O (relative stereo) [3,3-dimethyl-9-oxo-13-trans-prostenoic acid] | 3 to 5 µg/mL (≈ 8.56 to 14.3 µM) | 1 µg/mL (≈ 2.85 µM) | 12 mg/kg | > 10 mg/kg | 5.1 mg/kg |  | inhibition in vivo at 200 mg/kg (gastric acid secretion [2]; 200 mg./kg. intraduodenal): 72%
CCCCCC/C=C/[C@@H]1CCC(=O)[C@H]1CCCCC(C)(C)CC(=O)OCC (relative stereo) [ethyl 9-oxo-3,3-dimethyl-13-trans-prostenoate] |  |  |  |  |  |  | inhibition in vivo at 10 mg/kg (gastric acid secretion [6]; [11]): 59%; inhibition in vivo at 10 mg/kg (gastric acid secretion [6]; [12]): 18%
CCCCCC/C=C/[C@H]1CCC(=NOC)[C@@H]1CCCCCCC(=O)OCC (relative stereo) [ethyl 9-oxo-13-trans-prostenoate 9-methoxime] |  |  |  |  |  |  | inhibition in vivo at 10 mg/kg (gastric acid secretion [6]; [11]): 66%; inhibition in vivo at 10 mg/kg (gastric acid secretion [6]; [12]): 45%
CCCCCCCCCC/C=C/[C@H]1CCC(=O)[C@@H]1CCCCCCC(=O)OCC (relative stereo) [ethyl 20-butyl-9-oxo-13-trans-prostenoate] |  |  |  |  |  |  | minimal effective dose (diastolic blood pressure): 10 mg/kg; MIC [7]: 250 µg/mL (≈ 615 µM); MIC [8]: 250 µg/mL (≈ 615 µM)
CCCC=CC1CCC(=O)C1CCCCCC(F)C(=O)O (stereo not drawn) [9-oxo-2-fluoro-18,19,20-trinor-13-trans-prostenoic acid] | 25 to 30 µg/mL (≈ 83.8 to 101 µM) |  | 8.36 mg/kg | > 10 mg/kg | 6.35 mg/kg |  | 
